Values of other authors in patent US20110123575A1, “MODIFIED RELEASE NIACIN FORMULATIONS” (DR. REDDY'S LABORATORIES LTD., priority 2008, published 2011).

Conditions: white, crystalline powder

Compound: O=C(O)c1cccnc1 [Niacin, 3-pyridinecarboxylic acid]
- solubility in water: very soluble in water
